“And” between values parts separate entries of the source, which are not always exact repeats. Identical values can stand only once.
How the values were obtained:
Assay in all cases: biochemical
Assay type in all cases: biochemical
various kinases [1] = target: T1, various kinases (Homo sapiens, UniProt Q02156); conditions: kinase PRKCE (PKC epsilon); ZLYTE
T1 sequence (Q02156 1-737): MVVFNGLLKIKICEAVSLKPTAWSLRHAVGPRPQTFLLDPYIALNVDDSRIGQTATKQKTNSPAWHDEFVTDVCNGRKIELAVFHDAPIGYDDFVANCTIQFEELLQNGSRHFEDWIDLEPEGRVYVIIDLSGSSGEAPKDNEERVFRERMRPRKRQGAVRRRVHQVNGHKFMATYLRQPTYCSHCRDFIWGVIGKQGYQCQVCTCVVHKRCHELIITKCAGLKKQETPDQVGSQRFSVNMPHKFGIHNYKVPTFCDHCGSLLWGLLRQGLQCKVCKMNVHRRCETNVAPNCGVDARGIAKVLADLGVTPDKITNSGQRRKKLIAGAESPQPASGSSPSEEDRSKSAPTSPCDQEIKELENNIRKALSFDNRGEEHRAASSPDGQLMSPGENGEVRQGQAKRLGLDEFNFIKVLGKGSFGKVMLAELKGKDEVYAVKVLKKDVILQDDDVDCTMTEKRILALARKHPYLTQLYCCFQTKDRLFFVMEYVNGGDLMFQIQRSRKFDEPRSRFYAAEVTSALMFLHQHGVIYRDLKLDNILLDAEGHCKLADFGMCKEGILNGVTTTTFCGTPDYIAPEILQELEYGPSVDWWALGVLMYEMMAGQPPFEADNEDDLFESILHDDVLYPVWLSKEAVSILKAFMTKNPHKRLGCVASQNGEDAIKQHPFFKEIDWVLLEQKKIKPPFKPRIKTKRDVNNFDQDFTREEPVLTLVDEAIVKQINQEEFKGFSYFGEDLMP

various kinases [2] = target: T2, various kinases (Homo sapiens, UniProt Q13976); conditions: kinase PRKG1; ZLYTE
T2 sequence (Q13976 1-671): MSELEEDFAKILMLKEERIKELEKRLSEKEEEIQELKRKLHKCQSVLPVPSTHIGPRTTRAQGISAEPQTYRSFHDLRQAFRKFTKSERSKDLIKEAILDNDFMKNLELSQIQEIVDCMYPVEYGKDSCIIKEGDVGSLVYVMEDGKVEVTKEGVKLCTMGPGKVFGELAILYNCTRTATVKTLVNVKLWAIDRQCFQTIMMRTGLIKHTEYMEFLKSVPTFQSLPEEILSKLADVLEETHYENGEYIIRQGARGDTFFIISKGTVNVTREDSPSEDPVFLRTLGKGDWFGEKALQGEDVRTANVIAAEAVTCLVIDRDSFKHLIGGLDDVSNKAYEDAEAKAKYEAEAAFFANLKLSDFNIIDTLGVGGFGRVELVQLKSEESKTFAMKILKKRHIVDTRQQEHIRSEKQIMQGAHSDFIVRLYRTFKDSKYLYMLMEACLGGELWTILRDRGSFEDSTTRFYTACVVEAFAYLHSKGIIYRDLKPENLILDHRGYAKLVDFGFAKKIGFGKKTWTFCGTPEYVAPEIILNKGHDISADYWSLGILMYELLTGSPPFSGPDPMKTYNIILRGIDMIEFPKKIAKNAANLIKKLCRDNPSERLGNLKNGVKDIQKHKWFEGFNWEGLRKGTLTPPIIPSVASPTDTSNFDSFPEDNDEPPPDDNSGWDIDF

various kinases [3] = target: various kinases (Homo sapiens, UniProt Q16539)
various kinases (Homo sapiens, UniProt Q16539), sequence (Q16539 whole entry): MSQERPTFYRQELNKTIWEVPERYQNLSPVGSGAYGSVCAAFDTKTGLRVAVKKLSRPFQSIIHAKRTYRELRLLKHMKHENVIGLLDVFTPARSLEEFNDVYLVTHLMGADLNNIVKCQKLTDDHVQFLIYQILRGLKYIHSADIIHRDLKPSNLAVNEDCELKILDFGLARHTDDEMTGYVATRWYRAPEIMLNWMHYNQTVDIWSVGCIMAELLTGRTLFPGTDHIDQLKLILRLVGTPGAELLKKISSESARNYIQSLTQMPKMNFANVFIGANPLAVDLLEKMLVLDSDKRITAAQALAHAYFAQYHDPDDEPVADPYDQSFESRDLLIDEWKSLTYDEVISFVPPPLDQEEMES

various kinases [4] = target: various kinases (Homo sapiens, UniProt Q13627); conditions: DYRK1A
various kinases [5] = target: various kinases (Homo sapiens, UniProt P10721, V559D); conditions: KIT V559D
various kinases (Homo sapiens, UniProt P10721, V559D), sequence (P10721 26-976 V559D): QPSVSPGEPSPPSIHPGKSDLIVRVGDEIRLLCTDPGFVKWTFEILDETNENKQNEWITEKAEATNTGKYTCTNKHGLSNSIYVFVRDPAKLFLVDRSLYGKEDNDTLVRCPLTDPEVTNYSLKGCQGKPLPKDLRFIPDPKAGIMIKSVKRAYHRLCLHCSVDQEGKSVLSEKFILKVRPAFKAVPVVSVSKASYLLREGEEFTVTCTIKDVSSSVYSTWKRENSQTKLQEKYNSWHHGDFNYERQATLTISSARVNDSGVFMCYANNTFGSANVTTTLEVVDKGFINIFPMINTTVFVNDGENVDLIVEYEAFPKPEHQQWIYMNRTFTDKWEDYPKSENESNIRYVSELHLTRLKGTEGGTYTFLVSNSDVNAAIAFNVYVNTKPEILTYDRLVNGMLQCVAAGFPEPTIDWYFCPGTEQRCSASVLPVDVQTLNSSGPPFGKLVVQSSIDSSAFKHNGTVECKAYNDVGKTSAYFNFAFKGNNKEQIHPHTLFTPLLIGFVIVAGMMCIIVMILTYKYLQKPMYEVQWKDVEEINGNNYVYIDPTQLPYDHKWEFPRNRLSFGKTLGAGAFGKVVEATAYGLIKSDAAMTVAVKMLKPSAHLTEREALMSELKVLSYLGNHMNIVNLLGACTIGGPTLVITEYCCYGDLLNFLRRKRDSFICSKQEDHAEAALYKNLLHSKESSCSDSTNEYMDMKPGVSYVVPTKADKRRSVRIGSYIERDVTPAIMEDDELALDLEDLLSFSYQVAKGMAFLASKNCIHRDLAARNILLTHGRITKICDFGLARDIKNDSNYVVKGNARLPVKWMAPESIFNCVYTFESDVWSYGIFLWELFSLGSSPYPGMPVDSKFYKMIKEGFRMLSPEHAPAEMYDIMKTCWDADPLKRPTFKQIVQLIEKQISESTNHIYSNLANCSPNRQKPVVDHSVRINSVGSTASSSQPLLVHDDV

various kinases [6] = target: various kinases (Homo sapiens, UniProt P49761); conditions: CLK3
various kinases (Homo sapiens, UniProt P49761), sequence (P49761 whole entry): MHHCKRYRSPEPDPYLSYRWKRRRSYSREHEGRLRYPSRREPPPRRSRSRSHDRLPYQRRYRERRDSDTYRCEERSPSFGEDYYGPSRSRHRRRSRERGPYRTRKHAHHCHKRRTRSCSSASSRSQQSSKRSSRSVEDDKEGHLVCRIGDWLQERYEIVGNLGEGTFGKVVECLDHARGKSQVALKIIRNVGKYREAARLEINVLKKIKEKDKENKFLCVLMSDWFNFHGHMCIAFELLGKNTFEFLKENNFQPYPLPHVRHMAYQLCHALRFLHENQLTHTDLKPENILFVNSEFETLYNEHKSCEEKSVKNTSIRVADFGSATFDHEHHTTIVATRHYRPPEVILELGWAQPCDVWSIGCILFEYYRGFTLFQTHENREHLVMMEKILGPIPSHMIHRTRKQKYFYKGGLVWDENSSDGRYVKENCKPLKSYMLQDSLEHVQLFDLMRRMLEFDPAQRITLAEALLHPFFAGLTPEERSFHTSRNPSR

various kinases [7] = target: T3, various kinases (Homo sapiens, UniProt Q13188); conditions: kinase STK3 (MST2); ZLYTE
T3 sequence (Q13188 1-491): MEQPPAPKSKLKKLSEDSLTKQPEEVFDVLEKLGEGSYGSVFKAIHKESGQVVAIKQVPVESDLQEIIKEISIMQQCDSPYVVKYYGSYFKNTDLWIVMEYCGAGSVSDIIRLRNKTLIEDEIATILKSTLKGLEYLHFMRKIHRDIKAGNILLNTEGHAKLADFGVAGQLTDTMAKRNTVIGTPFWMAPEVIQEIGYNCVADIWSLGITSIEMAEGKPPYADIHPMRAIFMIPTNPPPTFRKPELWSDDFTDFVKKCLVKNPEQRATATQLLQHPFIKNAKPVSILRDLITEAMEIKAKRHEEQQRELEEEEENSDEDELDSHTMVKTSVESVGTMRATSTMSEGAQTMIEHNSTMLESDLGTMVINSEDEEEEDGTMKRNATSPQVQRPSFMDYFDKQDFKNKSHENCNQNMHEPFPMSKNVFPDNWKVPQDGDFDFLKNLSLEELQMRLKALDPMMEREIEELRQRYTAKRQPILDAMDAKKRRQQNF

various kinases [8] = target: various kinases (Homo sapiens, UniProt Q8TDC3); conditions: BRSK1 (SAD1)
various kinases [9] = target: various kinases (Homo sapiens, UniProt P21802, N549H); conditions: FGFR2 N549H
various kinases (Homo sapiens, UniProt P21802, N549H), sequence (P21802 22-821 N549H): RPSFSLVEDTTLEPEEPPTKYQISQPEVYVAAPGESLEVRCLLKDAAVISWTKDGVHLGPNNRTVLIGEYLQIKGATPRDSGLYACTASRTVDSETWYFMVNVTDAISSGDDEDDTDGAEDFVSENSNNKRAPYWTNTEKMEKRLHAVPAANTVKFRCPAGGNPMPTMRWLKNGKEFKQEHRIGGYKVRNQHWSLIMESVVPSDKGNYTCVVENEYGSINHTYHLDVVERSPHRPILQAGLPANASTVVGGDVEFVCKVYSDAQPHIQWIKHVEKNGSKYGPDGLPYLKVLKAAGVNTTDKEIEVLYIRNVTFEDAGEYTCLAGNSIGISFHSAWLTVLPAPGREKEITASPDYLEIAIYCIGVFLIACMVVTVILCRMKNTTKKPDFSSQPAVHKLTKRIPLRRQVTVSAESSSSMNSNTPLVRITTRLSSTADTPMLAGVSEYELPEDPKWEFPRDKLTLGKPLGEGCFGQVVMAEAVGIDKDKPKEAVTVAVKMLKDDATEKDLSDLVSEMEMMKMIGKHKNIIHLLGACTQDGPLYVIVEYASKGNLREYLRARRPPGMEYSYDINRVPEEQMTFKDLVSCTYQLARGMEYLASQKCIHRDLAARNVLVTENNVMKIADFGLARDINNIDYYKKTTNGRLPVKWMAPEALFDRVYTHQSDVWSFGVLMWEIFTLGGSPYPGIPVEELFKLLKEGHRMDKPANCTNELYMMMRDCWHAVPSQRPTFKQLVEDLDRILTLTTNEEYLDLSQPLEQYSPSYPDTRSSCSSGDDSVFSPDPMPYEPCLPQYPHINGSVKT

various kinases [10] = target: various kinases (Homo sapiens, UniProt P15056); conditions: BRAF
various kinases (Homo sapiens, UniProt P15056), sequence (P15056 whole entry): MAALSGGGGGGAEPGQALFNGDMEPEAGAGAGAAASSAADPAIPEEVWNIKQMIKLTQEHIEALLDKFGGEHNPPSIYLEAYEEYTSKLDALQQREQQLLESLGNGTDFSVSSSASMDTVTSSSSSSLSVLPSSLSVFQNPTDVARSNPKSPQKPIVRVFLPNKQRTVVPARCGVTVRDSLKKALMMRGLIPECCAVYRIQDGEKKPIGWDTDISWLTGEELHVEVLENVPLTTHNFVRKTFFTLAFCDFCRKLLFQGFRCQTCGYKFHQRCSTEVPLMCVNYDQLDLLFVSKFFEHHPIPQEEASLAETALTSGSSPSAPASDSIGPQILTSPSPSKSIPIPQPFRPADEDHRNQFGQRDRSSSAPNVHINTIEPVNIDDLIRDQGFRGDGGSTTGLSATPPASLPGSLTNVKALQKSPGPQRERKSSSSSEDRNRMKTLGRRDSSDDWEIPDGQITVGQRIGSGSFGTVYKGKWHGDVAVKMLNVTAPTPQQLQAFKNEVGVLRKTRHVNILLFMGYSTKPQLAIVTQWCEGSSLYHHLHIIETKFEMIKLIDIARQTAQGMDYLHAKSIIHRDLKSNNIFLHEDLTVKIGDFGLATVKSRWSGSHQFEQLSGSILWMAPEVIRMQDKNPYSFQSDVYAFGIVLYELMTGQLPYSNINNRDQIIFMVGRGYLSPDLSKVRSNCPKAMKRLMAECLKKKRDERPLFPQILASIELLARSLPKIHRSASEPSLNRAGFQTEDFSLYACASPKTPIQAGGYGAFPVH

various kinases [11] = target: various kinases (Homo sapiens, UniProt P19784); conditions: CSNK2A2 (CK2 alpha 2)
various kinases (Homo sapiens, UniProt P19784), sequence (P19784 whole entry): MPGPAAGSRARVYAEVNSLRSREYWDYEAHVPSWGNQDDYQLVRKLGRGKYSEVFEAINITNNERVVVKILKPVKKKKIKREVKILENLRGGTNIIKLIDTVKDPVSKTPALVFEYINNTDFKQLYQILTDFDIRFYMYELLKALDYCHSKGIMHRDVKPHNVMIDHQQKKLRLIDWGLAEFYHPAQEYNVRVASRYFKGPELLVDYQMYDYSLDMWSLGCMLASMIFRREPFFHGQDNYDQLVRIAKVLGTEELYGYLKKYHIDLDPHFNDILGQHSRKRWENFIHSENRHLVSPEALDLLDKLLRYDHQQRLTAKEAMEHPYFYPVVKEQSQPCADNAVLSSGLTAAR

various kinases [12] = target: various kinases (Homo sapiens, UniProt Q00537); conditions: CDK17/cyclin Y
various kinases (Homo sapiens, UniProt Q00537), sequence (Q00537 whole entry): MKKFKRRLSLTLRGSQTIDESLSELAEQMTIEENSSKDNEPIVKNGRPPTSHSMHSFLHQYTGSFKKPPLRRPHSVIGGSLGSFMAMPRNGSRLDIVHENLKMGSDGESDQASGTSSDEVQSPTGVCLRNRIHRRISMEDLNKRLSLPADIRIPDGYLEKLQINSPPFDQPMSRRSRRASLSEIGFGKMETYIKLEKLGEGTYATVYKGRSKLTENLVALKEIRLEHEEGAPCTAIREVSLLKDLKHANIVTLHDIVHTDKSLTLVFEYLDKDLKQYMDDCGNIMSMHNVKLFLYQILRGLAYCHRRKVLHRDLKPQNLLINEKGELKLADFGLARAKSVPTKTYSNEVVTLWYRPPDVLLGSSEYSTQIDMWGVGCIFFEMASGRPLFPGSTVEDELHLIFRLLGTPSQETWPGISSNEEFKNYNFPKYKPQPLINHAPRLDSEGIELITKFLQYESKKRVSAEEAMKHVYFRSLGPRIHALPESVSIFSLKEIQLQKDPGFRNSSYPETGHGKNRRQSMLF

various kinases [13] = target: various kinases (Homo sapiens, UniProt P06493); conditions: CDK1/cyclin B
various kinases (Homo sapiens, UniProt P06493), sequence (P06493 whole entry): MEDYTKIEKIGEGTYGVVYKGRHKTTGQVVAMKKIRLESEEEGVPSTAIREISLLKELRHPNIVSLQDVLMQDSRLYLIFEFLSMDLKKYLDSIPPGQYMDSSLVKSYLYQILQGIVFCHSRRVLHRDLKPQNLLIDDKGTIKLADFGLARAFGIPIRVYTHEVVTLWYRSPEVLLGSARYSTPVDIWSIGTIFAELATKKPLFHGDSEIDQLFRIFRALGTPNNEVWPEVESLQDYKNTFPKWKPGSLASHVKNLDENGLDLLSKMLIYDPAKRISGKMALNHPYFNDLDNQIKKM

various kinases [14] = target: various kinases (Homo sapiens, UniProt P16591); conditions: FER
various kinases [15] = target: various kinases (Homo sapiens, UniProt Q13882); conditions: kinase PTK6 (Brk); ZLYTE
various kinases (Homo sapiens, UniProt Q13882), sequence (Q13882 whole entry): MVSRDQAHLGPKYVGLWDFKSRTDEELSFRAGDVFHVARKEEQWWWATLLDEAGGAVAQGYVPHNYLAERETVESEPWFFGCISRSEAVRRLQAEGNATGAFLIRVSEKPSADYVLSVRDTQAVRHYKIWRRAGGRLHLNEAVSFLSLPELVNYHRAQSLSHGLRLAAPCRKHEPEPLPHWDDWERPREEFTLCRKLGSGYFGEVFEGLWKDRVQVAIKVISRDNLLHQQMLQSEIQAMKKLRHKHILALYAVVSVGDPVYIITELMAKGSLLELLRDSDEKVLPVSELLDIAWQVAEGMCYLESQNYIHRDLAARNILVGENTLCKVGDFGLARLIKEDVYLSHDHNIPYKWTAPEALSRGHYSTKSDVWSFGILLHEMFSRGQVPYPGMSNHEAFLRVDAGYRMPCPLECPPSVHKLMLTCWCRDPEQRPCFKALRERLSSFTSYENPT
For % Inhibition Average in this document: test concentration or dose not given here.
For % Inhibition Duplicate #1 in this document: test concentration or dose not given here.
For % Inhibition Duplicate #2 in this document: test concentration or dose not given here.

For `COc1ccc2c(c1)[C@]1(C[C@H]1c1ccc3c(/C=C/c4ccc(CN5C[C@@H](C)O[C@@H](C)C5)cc4)n[nH]c3c1)C(=O)N2` [CFI-400945], the “% Inhibition Average” value (various kinases [1]) was -2%, the “% Inhibition Duplicate #1” value (various kinases [1]) was -5% and the “% Inhibition Duplicate #2” value (various kinases [1]) was 1%. The “% Inhibition Average” value (various kinases [2]) was 5%, the “% Inhibition Duplicate #1” value (various kinases [2]) was 6% and the “% Inhibition Duplicate #2” value (various kinases [2]) was 4%. For the same molecule, the “% Inhibition” value (various kinases [3]; MAPK14 (p38 alpha)) was 8% and 0%, the “% Inhibition” value (various kinases [3]; MAPK14 (p38 alpha) Direct) was 11% and the “% Inhibition” value (various kinases [4]) was 2% and 4%. For the same molecule, the “% Inhibition” value (various kinases [5]) was 9% and 10%, the “% Inhibition” value (various kinases [6]) was 2% and 0% and the “% Inhibition Average” value (various kinases [7]) was 13%. The “% Inhibition Duplicate #1” value (various kinases [7]) was 15%, the “% Inhibition Duplicate #2” value (various kinases [7]) was 12% and the “% Inhibition” value (various kinases [8]) was 13% and 7%. The “% Inhibition” value (various kinases [9]) was 12% and 18%, the “% Inhibition” value (various kinases [10]) was -1% and 2% and the “% Inhibition” value (various kinases [11]) was -1% and 0%. For the same molecule, the “% Inhibition” value (various kinases [12]) was -1% and 8%, the “% Inhibition” value (various kinases [13]) was 16% and 12% and the “% Inhibition” value (various kinases [14]) was 7% and 11%. The “% Inhibition Average” value (various kinases [15]) was 4%, the “% Inhibition Duplicate #1” value (various kinases [15]) was 5% and the “% Inhibition Duplicate #2” value (various kinases [15]) was 3%.
